Data: the NIST ThermoML archive (doi:10.1016/j.jct.2015.05.028)
± gives the expanded uncertainty stated by the source.

Tests used:
[1] = Crystal; DTA
[2] = mn = molality of the nth substance listed, in mol/kg; conditions: 99.6 kPa, Liquid, Vibrating tube method

CN1C(=O)N(C)C2NC(=O)NC21 (centres undefined)
Conditions	Normal melting temperature [°C]
[1]	253.28 ± 2

CCN1C(=O)N(CC)C2NC(=O)NC21 (centres undefined)
Conditions	Normal melting temperature [°C]
[1]	327.64 ± 2

O [water] + CCN1C(=O)N(CC)C2NC(=O)NC21
Conditions	mass density [kg/m3]
[2], 278.15 K, m2 = 0	999.964 ± 0.11

O [water] + CN1C(=O)N(C)C2NC(=O)NC21
Conditions	mass density [kg/m3]
[2], 278.15 K, m2 = 0	999.965 ± 0.11

CN1C(=O)N(C)C2NC(=O)NC21 (centres undefined) + O
mass density [kg/m3], [2]
Conditions	278.15 K	288.15 K	298.15 K	308.15 K	318.15 K
m1 = 0.06671	1003.16 ± 0.11	1002.21 ± 0.11	1000.08 ± 0.11	997.02 ± 0.11	993.153 ± 0.11
m1 = 0.0951	1004.51 ± 0.11	1003.52 ± 0.11	1001.37 ± 0.11	998.281 ± 0.11	994.389 ± 0.11
m1 = 0.1319	1006.28 ± 0.11	1005.23 ± 0.11	1003.04 ± 0.11	999.917 ± 0.11	995.999 ± 0.11
m1 = 0.169	1008.03 ± 0.11	1006.93 ± 0.11	1004.72 ± 0.11	1001.55 ± 0.11	997.607 ± 0.11
m1 = 0.1987	1009.43 ± 0.11	1008.31 ± 0.11	1006.04 ± 0.11	1002.87 ± 0.11	998.902 ± 0.11
m1 = 0.2323	1011.02 ± 0.11	1009.84 ± 0.11	1007.54 ± 0.11	1004.34 ± 0.11	1000.35 ± 0.11
m1 = 0.2679	1012.68 ± 0.11	1011.46 ± 0.11	1009.13 ± 0.11	1005.9 ± 0.11	1001.88 ± 0.11
m1 = 0.3038	1014.37 ± 0.11	1013.1 ± 0.11	1010.73 ± 0.11	1007.47 ± 0.11	1003.42 ± 0.11
m1 = 0.3326	1015.72 ± 0.11	1014.41 ± 0.11	1012.01 ± 0.11	1008.71 ± 0.11	1004.65 ± 0.11
m1 = 0.3594	1016.96 ± 0.11	1015.62 ± 0.11	1013.19 ± 0.11	1009.88 ± 0.11	1005.79 ± 0.11
m1 = 0.3919	1018.47 ± 0.11	1017.09 ± 0.11	1014.62 ± 0.11	1011.29 ± 0.11	1007.17 ± 0.11
